Like-named read-outs stand apart in the source and are kept apart here.
Tests used:
[1] = tested on: JAK/JAK3; parameters: method as in PMID 18094329; conditions: cellular assay; cited from earlier work
[2] = tested on: PKA; parameters: method as in PMID 18094329; conditions: at concentrations >5μM; cited from earlier work
[3] = tested on: JAK3; parameters: method as in PMID 18094329; conditions: read-out: IC50 against JAK3; cited from earlier work
[4] = tested on: cdk6; parameters: method as in PMID 18094329; conditions: inactive or IC50 >30μM; read-out: IC50 against cdk6; cited from earlier work
[5] = tested on: MASK; parameters: method as in PMID 18094329; conditions: inactive or IC50 >30μM; read-out: IC50 against MASK; cited from earlier work
[6] = tested on: PAK4; parameters: method as in PMID 18094329; conditions: inactive or IC50 >30μM; read-out: IC50 against PAK4; cited from earlier work
[7] = tested on: STAT-1; assay: STAT-1 phosphorylation in human primary airway epithelial cells (western blot); format: cell-based; conditions: 1μM inhibitor 1h, IFNγ and IFNγ + TNFα 10 min
Method: Enhanced chemiluminescence (ECL) reagent and Hybond-ECL nitrocellulose were obtained from GE Healthcare (Little Chalfont, UK). Bis-Tris SDS-PAGE (4–12%) gels and buffers were purchased from Invitrogen Ltd (Paisley, Scotland, UK). Antibodies against phosphorylated and total STAT-1 were purchased from New England Biolabs (Hitchin, UK). Epithelial cells were treated as indicated in six-well plates and lysed in 10 mM Tris-HCl buffer (pH 7.5) containing 150 mM NaCl, 2 mM EDTA, 1 mM sodium orthovanadate, 1% (v/v) Triton X-100, 1 mM phenylmethylsulfonyl fluoride, 10 μg/ml leupeptin, and 10 μg/ml aprotinin) for 30 min on ice. The lysates were then centrifuged at 12,000g for 15 min and protein concentration determined using the BCA protein assay (BioRad, Hemel Hempstead, UK). The proteins within the lysates (20 μg) were resolved with 4–12% Bis-Tris gels and transferred onto nitrocellulose membranes. The membranes were then blocked with 5% (w/v) non-fat milk in TBS containing 0.1% (v/v) Tween 20 for 1 h at room temperature and then incubated with antibodies specific for pSTAT-1 overnight at 4°C. The primary antibody was detected with peroxidase-conjugated secondary antibodies and labelled proteins were detected by ECL.
Cells were harvested and western blots performed for phosphorylated STAT-1 and total STAT-1 and quantified by densitometry. […]

[8] = tested on: MAPKAP-K2; parameters: method as in PMID 18094329; conditions: inactive or IC50 >30μM; read-out: IC50 against MAPKAP-K2; cited from earlier work
[9] = tested on: TrkA; parameters: method as in PMID 18094329; conditions: inactive or IC50 >30μM; read-out: IC50 against TrkA; cited from earlier work
[10] = tested on: ~30 other kinase pathways; parameters: method as in PMID 18094329; conditions: including AKT, GSK3β, IKKβ, IKKi, MAPK1, MAPKAP-K2, MASK, MET, and ROCK1; cited from earlier work
[11] = tested on: PKCb; parameters: method as in PMID 18094329; conditions: inactive or IC50 >30μM; read-out: IC50 against PKCb; cited from earlier work
[12] = tested on: ROCK1; parameters: method as in PMID 18094329; conditions: inactive or IC50 >30μM; read-out: IC50 against ROCK1; cited from earlier work
[13] = tested on: TaoK3; parameters: method as in PMID 18094329; conditions: inactive or IC50 >30μM; read-out: IC50 against TaoK3; cited from earlier work
[14] = tested on: AuroraA; parameters: method as in PMID 18094329; conditions: inactive or IC50 >30μM; read-out: IC50 against AuroraA; cited from earlier work
[15] = tested on: cdk2; parameters: method as in PMID 18094329; conditions: inactive or IC50 >30μM; read-out: IC50 against cdk2; cited from earlier work
[16] = tested on: IKKi; parameters: method as in PMID 18094329; conditions: inactive or IC50 >30μM; read-out: IC50 against IKKi; cited from earlier work
[17] = tested on: human T lymphocytes (JAK1/2); parameters: method as in Coe et al., 25; conditions: ref Coe et al., 25; read-out: IC50 IL-12-induced IFNγ release by human T lymphocytes (JAK1/2); cited from earlier work
[18] = tested on: JAK1; parameters: method as in Coe et al., 25; conditions: ref Coe et al., 25, cited from earlier work
[19] = tested on: MLK1; parameters: method as in Coe et al., 25; conditions: ATP at the Km; ref Coe et al., 25; cited from earlier work
[20] = tested on: MST4; parameters: method as in Coe et al., 25; conditions: ATP at the Km; ref Coe et al., 25; cited from earlier work
[21] = molecular target: Protein kinase C β2; conditions: read-out: IC50 Protein kinase C β2 Km; ATP at the Km; ref Coe et al., 25; cited from earlier work
[22] = tested on: MAP4K4; parameters: method as in Coe et al., 25; conditions: ATP at the Km; ref Coe et al., 25; cited from earlier work
[23] = tested on: TYK2; parameters: method as in Coe et al., 25; conditions: ref Coe et al., 25, cited from earlier work
[24] = tested on: JAK2; parameters: method as in Coe et al., 25; conditions: ref Coe et al., 25, cited from earlier work

C[C@@H]1CCN(C(=O)N2CCCC2)C[C@@H]1N(C)c1ncnc2[nH]ccc12 [PF956980]
IC50 [1]: 22 nM | effect against PKA [2]: modest effects | IC50 [3]: ~4 nM | IC50 [4]: > 30000 nM | IC50 [5]: > 30000 nM | IC50 [6]: > 30000 nM | effect on phosphorylation of STAT-1 [7]: suppressed | IC50 [8]: > 30000 nM | IC50 [9]: > 30000 nM | effect on ~30 other kinase pathways [10]: no effect | IC50 [11]: > 30000 nM | IC50 [12]: > 30000 nM | IC50 [13]: > 30000 nM | IC50 [14]: > 30000 nM | IC50 [15]: > 30000 nM | IC50 [16]: > 30000 nM

CCc1cc(O)ccc1-c1ccc2c(-c3nc4ccccc4[nH]3)n[nH]c2c1 [PF1367550, 4-(3-(1H-benzo[d]imidazol-2-yl)-1H-indazol-6-yl)-3-ethylphenol]
IC50 [17]: 45 nM | IC50 ([18]; 1mM ATP, read-out: IC50 JAK1 1 mM): 0.4 nM | IC50 ([18]; ATP at the Km, read-out: IC50 JAK1 Km): 0.8 nM | IC50 [19]: 54 nM | IC50 [20]: 692 nM | IC50 [21]: 665 nM | effect on phosphorylation of STAT-1 [7]: suppressed | IC50 [22]: 60 nM | IC50 ([23]; 1mM ATP, read-out: IC50 TYK2 1 mM): 8.4 nM | IC50 ([23]; ATP at the Km, read-out: IC50 TYK2 Km): 0.8 nM | IC50 ([24]; 1mM ATP, read-out: IC50 JAK2 1 mM): 1.3 nM | IC50 ([24]; ATP at the Km, read-out: IC50 JAK2 Km): 1 nM
